The target of series [1] is T1, Amylin receptor AMY3; CALCR/RAMP3 (Homo sapiens, UniProt O60896+P30988).
T1 sequence (P30988 whole entry): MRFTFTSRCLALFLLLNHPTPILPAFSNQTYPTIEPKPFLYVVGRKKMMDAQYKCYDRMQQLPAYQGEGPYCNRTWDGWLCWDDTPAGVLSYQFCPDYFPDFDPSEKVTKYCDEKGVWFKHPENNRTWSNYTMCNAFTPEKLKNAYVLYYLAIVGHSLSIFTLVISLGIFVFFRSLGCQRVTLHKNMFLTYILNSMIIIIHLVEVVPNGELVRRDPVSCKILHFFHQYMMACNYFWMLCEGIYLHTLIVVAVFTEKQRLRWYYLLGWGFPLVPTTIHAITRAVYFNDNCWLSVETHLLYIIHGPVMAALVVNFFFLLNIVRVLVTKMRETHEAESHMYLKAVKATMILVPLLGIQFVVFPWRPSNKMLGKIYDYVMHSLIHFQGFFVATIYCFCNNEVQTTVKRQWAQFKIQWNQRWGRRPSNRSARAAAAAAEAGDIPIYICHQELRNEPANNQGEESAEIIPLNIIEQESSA
T1 sequence (O60896 whole entry): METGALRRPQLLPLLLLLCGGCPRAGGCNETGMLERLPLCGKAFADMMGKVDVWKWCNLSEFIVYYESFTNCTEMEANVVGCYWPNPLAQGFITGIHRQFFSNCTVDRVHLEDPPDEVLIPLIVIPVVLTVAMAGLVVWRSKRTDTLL
The series is described as follows: Agonist activity at human amylin receptor expressed in BHK570 cells co-expressing RAMP3 assessed as increase in intracellular cAMP concentration incubated for 3 hrs in absence of albumin by CRE luciferase reporter gene assay. The class given is functional, cell-based.

In series [2] the target is T1, Amylin receptor AMY3; CALCR/RAMP3. Briefly: Agonist activity at human amylin receptor expressed in BHK570 cells co-expressing RAMP3 assessed as increase in intracellular cAMP concentration incubated for 3 hrs in presence of 10% FBS by CRE luciferase reporter gene assay. The class given is functional, cell-based.
Series [3] addresses T2, Calcitonin receptor (Homo sapiens, UniProt P30988).
T2 sequence (P30988 whole entry): T1 sequence (P30988 whole entry)
Briefly: Agonist activity at human calcitonin receptor expressed in BHK570 cells assessed as increase in intracellular cAMP concentration incubated for 3 hrs in presence of 10% FBS by CRE luciferase reporter gene assay. Format: functional, cell-based.

Series [4] is described as follows: Solubility in 100 mM glycylglycine buffer at pH 3.0 incubated for 18 hrs by UPLC analysis. Format: physicochemical.
Series [5] in a line: Solubility in 100 mM glycylglycine buffer at pH 4.0 incubated for 18 hrs by UPLC analysis. The class given is physicochemical.
Series [6] is described as follows: Solubility in 100 mM bistrispropane buffer at pH 6.0 incubated for 18 hrs by UPLC analysis. The class given is physicochemical.
Series [7] in a line: Solubility in 100 mM bistrispropane buffer at pH 6.5 incubated for 18 hrs by UPLC analysis. Format: physicochemical.
The nature of series [8]: Solubility in 100 mM bistrispropane buffer at pH 7.0 incubated for 18 hrs by UPLC analysis. Format: physicochemical.
Series [9] in a line: Solubility in 100 mM bistrispropane buffer at pH 7.5 incubated for 18 hrs by UPLC analysis. Format: physicochemical.
Series [10] is described as follows: Solubility in 100 mM bistrispropane buffer at pH 8.0 incubated for 18 hrs by UPLC analysis. Format: physicochemical.
The target in series [11] is T1, Amylin receptor AMY3; CALCR/RAMP3. The series is described as follows: Displacement of [125I]-labeled rat amylin from human amylin receptor expressed in BHK tkts13 whole cells co-expressing RAMP3 incubated for 60 mins by scintillation proximity assay. Format: cell-based.
Series [12] addresses T2, Calcitonin receptor. The series is described as follows: Displacement of [125I]-labeled human calcitonin from human calcitonin receptor expressed in BHK tkts13 whole cells incubated for 60 mins by scintillation proximity assay. Format: cell-based.
Series [13] concerns Rattus norvegicus. Briefly: Reduction in food intake in Sprague-Dawley rat at 3 nmol/kg measured 0 to 24 hrs post dose relative to control. The class given is functional. Also on record: scale not given: the % may be the effect or the level left.
Series [14] deals with Rattus norvegicus. Briefly: Reduction in food intake in Sprague-Dawley rat at 3 nmol/kg measured 24 to 48 hrs post dose relative to control. The class given is functional. Set-up: scale not given: the % may be the effect or the level left.
The target of series [15] is T2, Calcitonin receptor. The series is described as follows: Agonist activity at human calcitonin receptor expressed in BHK570 cells assessed as increase in intracellular cAMP concentration incubated for 3 hrs in absence of albumin by CRE luciferase reporter gene assay. Format: functional, cell-based.
Series [16] can be described thus: Solubility in 100 mM glycylglycine buffer at pH 5.0 incubated for 18 hrs by UPLC analysis. The class given is physicochemical.

Data on four molecules can be found in ChEMBL document CHEMBL4420076, “Amylin and calcitonin receptor agonist” (2017).

Numbered stars: 1 amine (or outer) side, 2 acyl side, 3 side chain; on linkers, the order of the positions; unused ones are H or OH. Peptide text beside a SMILES is read from it. * marks the point of attachment. C20 diacid = O=C(O)CCCCCCCCCCCCCCCCCCC(=O)*; C18 diacid = O=C(O)CCCCCCCCCCCCCCCCC(=O)*; C16 diacid = O=C(O)CCCCCCCCCCCCCCC(=O)*; γGlu = O=C(O)[C@H](CCC(=O)[*:2])N[*:1]

As for `CC(C)C[C@H](NC(=O)[C@H](CCCNC(=N)N)NC(=O)CNC(=O)[C@H](CC(C)C)NC(=O)[C@@H](NC(=O)[C@H](C)NC(=O)[C@@H](NC(=O)[C@H](CO)NC(=O)[C@H](CC(C)C)NC(=O)[C@H](CCC(=O)O)NC(=O)[C@H](CO)NC(=O)[C@H](C)NC(=O)CC[C@H](NC(=O)CCCCCCCCCCCCCCCCCCC(=O)O)C(=O)O)[C@@H](C)O)[C@@H](C)O)C(=O)N[C@@H](CO)C(=O)N[C@@H](C)C(=O)N[C@@H](CCC(=O)O)C(=O)N[C@@H](CC(C)C)C(=O)N[C@@H](Cc1cnc[nH]1)C(=O)N[C@@H](CCC(=O)O)C(=O)N[C@@H](CC(C)C)C(=O)N[C@@H](CO)C(=O)N[C@H](C(=O)N[C@@H](Cc1ccc(O)cc1)C(=O)N1CCC[C@H]1C(=O)N[C@@H](CCCNC(=N)N)C(=O)N[C@H](C(=O)N[C@@H](CCC(=O)O)C(=O)N[C@H](C(=O)NCC(=O)N[C@@H](CO)C(=O)NCC(=O)N[C@@H](CO)C(=O)N1CCC[C@H]1C(N)=O)[C@@H](C)O)[C@@H](C)O)[C@@H](C)O` ({C20 diacid-γGlu}-ASELSTATLGRLSAELHELSTYPRTETGSGSP-NH2), the EC50 in [1] is 0.022 nM; in series [2], 0.15 nM; at Calcitonin receptor [3], 0.105 nM. Besides, the solubility at 18 h in series [4], in [5], in series [6], in series [7], in series [8] and in series [9] was at least 200 µM throughout. Also, in series [10], the solubility at 18 h is at least 200 µM. Besides, the IC50 in series [11] is 2.61 nM; on Calcitonin receptor [12] it was 2.94 nM.

Consider `CC(C)C[C@H](NC(=O)[C@H](CCC(=O)O)NC(=O)[C@H](Cc1cnc[nH]1)NC(=O)[C@H](CC(C)C)NC(=O)[C@H](CCC(=O)O)NC(=O)[C@H](C)NC(=O)[C@H](CO)NC(=O)[C@H](CC(C)C)NC(=O)[C@H](CCCNC(=N)N)NC(=O)CNC(=O)[C@H](CC(C)C)NC(=O)[C@@H](NC(=O)[C@H](C)NC(=O)[C@@H](NC(=O)[C@H](CO)NC(=O)[C@H](CC(C)C)NC(=O)[C@H](CCC(=O)O)NC(=O)[C@@H]1CCCN1C(=O)[C@H](C)NC(=O)[C@H](CCC(=O)O)NC(=O)CCCCCCCCCCCCCCCCC(=O)O)[C@@H](C)O)C(C)C)C(=O)N[C@@H](C)C(=O)N[C@H](C(=O)N[C@@H](CC(C)C)C(=O)N1CCC[C@H]1C(=O)N[C@@H](CCCNC(=N)N)C(=O)N[C@H](C(=O)N[C@@H](CCC(=O)O)C(=O)N[C@H](C(=O)NCC(=O)N1CCC[C@H]1C(=O)N[C@@H](CCC(=O)O)C(=O)N[C@@H](CO)C(=O)N1CCC[C@H]1C(N)=O)[C@@H](C)O)[C@@H](C)O)[C@@H](C)O` ({C18 diacid}-EAPELSTAVLGRLSAELHELATLPRTETGPESP-NH2), for which the Activity stood at 52% with Rattus norvegicus [13] and 0% in the series with Rattus norvegicus [14]. The concentration giving a half-maximal response (EC50) in series [1] is 0.01 nM; on Calcitonin receptor [15], 0.007 nM. In addition, the solubility at 18 h in [4], in [5], in series [6], in series [16], in series [7] and in series [8] was at least 200 µM each time. The solubility at 18 h in series [9] and in series [10] was at least 200 µM in each case. Besides, the figures for the IC50 (in series [11]; at Calcitonin receptor [12]) were 0.352 nM and 0.309 nM, respectively.

Take `CC(C)C[C@H](NC(=O)[C@H](C)NC(=O)[C@H](C)NC(=O)[C@@H](NC(=O)[C@H](CO)NC(=O)[C@H](CC(C)C)NC(=O)[C@H](CCC(=O)O)NC(=O)[C@H](CO)NC(=O)[C@H](C)NC(=O)[C@H](CCC(=O)O)NC(=O)CCCCCCCCCCCCCCC(=O)O)[C@@H](C)O)C(=O)NCC(=O)N[C@@H](CCCNC(=N)N)C(=O)N[C@@H](CC(C)C)C(=O)N[C@@H](CO)C(=O)N[C@@H](C)C(=O)N[C@@H](CCC(=O)O)C(=O)N[C@@H](CC(C)C)C(=O)N[C@@H](Cc1cnc[nH]1)C(=O)N[C@@H](CCC(=O)O)C(=O)N[C@@H](CC(C)C)C(=O)N[C@@H](C)C(=O)N[C@H](C(=O)N[C@@H](CC(C)C)C(=O)N1CCC[C@H]1C(=O)N[C@@H](CCCNC(=N)N)C(=O)N[C@H](C(=O)N[C@@H](CCC(=O)O)C(=O)N[C@H](C(=O)NCC(=O)N1CCC[C@H]1C(=O)N[C@@H](CCC(=O)O)C(=O)N[C@@H](CO)C(=O)N1CCC[C@H]1C(N)=O)[C@@H](C)O)[C@@H](C)O)[C@@H](C)O` ({C16 diacid}-EASELSTAALGRLSAELHELATLPRTETGPESP-NH2): the results for the Activity in the series on Rattus norvegicus [13] and with Rattus norvegicus [14] were 63% and 9%, respectively. In addition, the EC50 in series [1] is 0.008 nM; on Calcitonin receptor [15], 0.004 nM. Further, the solubility at 18 h in [4], in series [5], in [6], in series [16], in series [7] and in [8] was at least 200 µM each time. The solubility at 18 h in series [9] and in series [10] was at least 200 µM in each case. Further, the figures for the concentration for half-maximal inhibition (IC50) (in series [11]; at Calcitonin receptor [12]) were 0.498 nM and 0.413 nM, respectively.

With `CC(C)C[C@H](NC(=O)[C@H](CCC(=O)O)NC(=O)[C@H](C)NC(=O)[C@H](CO)NC(=O)[C@H](CC(C)C)NC(=O)[C@H](CCCNC(=N)N)NC(=O)CNC(=O)[C@H](CC(C)C)NC(=O)[C@@H](NC(=O)[C@H](C)NC(=O)[C@@H](NC(=O)[C@H](CO)NC(=O)[C@H](CC(C)C)NC(=O)[C@H](CCC(=O)O)NC(=O)[C@H](CO)NC(=O)[C@H](C)NC(=O)[C@H](CCC(=O)O)NC(=O)CCCCCCCCCCCCCCCCC(=O)O)[C@@H](C)O)C(C)C)C(=O)N[C@@H](C)C(=O)N[C@@H](CCC(=O)O)C(=O)N[C@@H](CC(C)C)C(=O)N[C@@H](C)C(=O)N[C@H](C(=O)N[C@@H](CC(C)C)C(=O)N1CCC[C@H]1C(=O)N[C@@H](CCCNC(=N)N)C(=O)N[C@H](C(=O)N[C@@H](CCC(=O)O)C(=O)N[C@H](C(=O)NCC(=O)N1CCC[C@H]1C(=O)N[C@@H](CCC(=O)O)C(=O)N[C@@H](CO)C(=O)N1CCC[C@H]1C(N)=O)[C@@H](C)O)[C@@H](C)O)[C@@H](C)O` ({C18 diacid}-EASELSTAVLGRLSAELAELATLPRTETGPESP-NH2), the Activity turned out to be 73% in the series on Rattus norvegicus [13] and 39% with Rattus norvegicus [14]. Moreover, the concentration giving a half-maximal response (EC50) is 0.008 nM in series [1] and 0.007 nM at Calcitonin receptor [15]. The solubility at 18 h in series [4], in series [6], in series [16], in series [7], in series [8] and in series [9] was at least 200 µM in each case. The molecule further had a solubility at 18 h in [10] of at least 200 µM. The IC50 at Calcitonin receptor [12] stood at 0.752 nM.
